Results taken from publication PMC6409085, “Three odorant-binding proteins are involved in the behavioral response of Sogatella furcifera to rice plant volatiles” (PeerJ, 2019).
Values joined by “and” are separate entries in the source; they are usually repeats but may differ in a detail not shown here. Equal values may be shown once.

What was measured:
SfurOBP1 [1] = biological target: T1, SfurOBP1 (Sogatella furcifera, UniProt V5T8N5); assay: Binding of 1-NPN to SfurOBP1 (fluorescence titration); conditions: for Fluorescence intensity: OBP1, triplicate columns
T1 sequence (V5T8N5 entry or part of it): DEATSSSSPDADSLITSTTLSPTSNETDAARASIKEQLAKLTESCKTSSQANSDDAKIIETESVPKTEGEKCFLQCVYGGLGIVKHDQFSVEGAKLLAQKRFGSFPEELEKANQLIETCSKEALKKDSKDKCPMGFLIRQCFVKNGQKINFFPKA
Method: (§1) Fluorescence competitive binding assays were performed on Tecan Spark 10M (Tecan Group Ltd., Männedorf, Switzerland) with the F96 Black ELIAS Plate (Sangon) ([Khuhro et al., 2017]; [Liu et al., 2017]). The solutions were excited at 337 nm and emission spectra were recorded between 390 and 490 nm. First, to test the binding constants of 1-NPN to the SfurOBPs, a 2.0 µM solution of protein in 50 mM Tris-HCl (pH = 7.4) was titrated with 1 mM 1-NPN to achieve virous concentrations. Next, the competitive binding of each odorant was measured using the 1-NPN as fluorescent reporter and odorant as competitor. The concentrations of protein and 1-NPN were both 2.0 µM, the odorant added after protein and 1-NPN added into the well of ELIAS Plate for 2 min. The final concentrations of each competitor were 2, 4, 6, 8, 10, 12, 14, 16, 18 and 20 µM. After 2 min of odorant added, the fluorescence intensity was measured and recorded. The volume of mixed solution in each well was maintained at 250 µL. Each interaction was performed in triplicates.
(§2) GraphPad Prism 7.0 software (GraphPad Software, Inc., La Jolla, CA, USA) was used to calculated and generated the binding constants (K1−NPN) of 1-NPN to SfurOBPs and relative Scatchard plots ([Ban et al., 2003]; [Li et al., 2016]). Dissociation constant (Ki) of each odorant to SfurOBP was computed from the corresponding IC50 value (the half maximal inhibitory concentration), using the following equation: Ki=[IC50]/(1 + [1-NPN]/K1−NPN), where [1-NPN] is the free concentration of 1-NPN and K1−NPN is the dissociation constant of the complex protein/1-NPN.

SfurOBP2 [2] = biological target: T2, SfurOBP2 (Sogatella furcifera, UniProt V5T759); assay: Binding of 1-NPN to SfurOBP2 (fluorescence titration); conditions: for Fluorescence intensity: OBP2, triplicate columns
T2 sequence (V5T759 entry or part of it): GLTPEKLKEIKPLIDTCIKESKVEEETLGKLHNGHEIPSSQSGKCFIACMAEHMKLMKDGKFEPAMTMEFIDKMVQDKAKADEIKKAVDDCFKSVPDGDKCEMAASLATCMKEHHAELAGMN
Method: as §1, §2

SfurOBP3 [3] = biological target: T3, SfurOBP3 (Sogatella furcifera, UniProt V5T818); assay: Binding of 1-NPN to SfurOBP3 (fluorescence titration); conditions: for Fluorescence intensity: OBP3, triplicate columns
T3 sequence (V5T818 entry or part of it): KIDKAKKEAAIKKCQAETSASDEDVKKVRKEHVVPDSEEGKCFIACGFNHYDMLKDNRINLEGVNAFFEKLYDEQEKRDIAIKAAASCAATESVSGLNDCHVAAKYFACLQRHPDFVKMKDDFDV
Method: as §1, §2

SfurOBP11 [4] = biological target: T4, SfurOBP11 (Sogatella furcifera, UniProt V5T6E3); assay: Binding of 1-NPN to SfurOBP11 (fluorescence titration); conditions: for Fluorescence intensity: OBP11, triplicate columns
T4 sequence (V5T6E3 entry or part of it): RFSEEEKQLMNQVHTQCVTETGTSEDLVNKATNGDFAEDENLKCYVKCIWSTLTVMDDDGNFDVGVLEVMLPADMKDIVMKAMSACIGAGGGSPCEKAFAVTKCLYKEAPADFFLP
Method: as §1, §2

SfurOBP1 [5] = biological target: T1, SfurOBP1; assay: biochemical; type: binding; conditions: SfurOBP1; protein and 1-NPN both 2.0 µM; competitor 2-20 µM; read-out: IC50
In short: (§3)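 K1-NPN came from titrating 2.0 µM protein (50 mM Tris-HCl, pH 7.4) with 1-NPN. Odorants at 2-20 µM then competed against 2.0 µM protein plus 2.0 µM 1-NPN for 2 min, with excitation at 337 nm and emission recorded over 390-490 nm. IC50 values were converted to Ki via Ki = IC50/(1 + [1-NPN]/K1-NPN).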

SfurOBP11 [6] = biological target: T4, SfurOBP11; assay: biochemical; type: binding; conditions: SfurOBP11; protein and 1-NPN both 2.0 µM; competitor 2-20 µM; read-out: IC50
In short: as §3

SfurOBP2 [7] = biological target: T2, SfurOBP2; assay: biochemical; type: binding; conditions: SfurOBP2; protein and 1-NPN both 2.0 µM; competitor 2-20 µM; read-out: IC50
In short: as §3

SfurOBP3 [8] = biological target: T3, SfurOBP3; assay: biochemical; type: binding; conditions: SfurOBP3; protein and 1-NPN both 2.0 µM; competitor 2-20 µM; read-out: IC50
In short: as §3

With `c1ccc(Nc2cccc3ccccc23)cc1` [1-NPN, N-phenyl-1-naphthylamine] as the compound, how does the Fluorescence intensity (SfurOBP1 [1]; 1-NPN 2 (unit not given)) read?
Its Fluorescence intensity is 7934 and 7244 and 7558.

What about the Fluorescence intensity (SfurOBP1 [1]; 1-NPN 4 (unit not given)) of the same compound?
The Fluorescence intensity was 14870 and 13520 and 13256.

And the Fluorescence intensity (SfurOBP1 [1]; 1-NPN 6 (unit not given))?
Its Fluorescence intensity is 19450 and 20173 and 19826.

What about the Fluorescence intensity (SfurOBP1 [1]; 1-NPN 8 (unit not given)) of the same compound?
Its Fluorescence intensity is 25948 and 27851 and 26112.

What about the Fluorescence intensity (SfurOBP1 [1]; 1-NPN 10 (unit not given)) of the same compound?
Its Fluorescence intensity is 30874 and 31162 and 28910.

And the Fluorescence intensity (SfurOBP1 [1]; 1-NPN 12 (unit not given))?
Its Fluorescence intensity is 33259 and 35914 and 35970.

And the Fluorescence intensity (SfurOBP1 [1]; 1-NPN 14 (unit not given))?
The Fluorescence intensity was 37528 and 37617 and 40532.

What about the Fluorescence intensity (SfurOBP1 [1]; 1-NPN 16 (unit not given)) of the same compound?
The Fluorescence intensity was 43674 and 43309 and 43505.

What about the Fluorescence intensity (SfurOBP1 [1]; 1-NPN 18 (unit not given)) of the same compound?
Its Fluorescence intensity is 50472 and 51665 and 48009.

And the Fluorescence intensity (SfurOBP1 [1]; 1-NPN 20 (unit not given))?
Its Fluorescence intensity is 53471 and 53438 and 53794.

What about the Fluorescence intensity (SfurOBP1 [1]; 1-NPN 22 (unit not given)) of the same compound?
Its Fluorescence intensity is 54404 and 53461 and 54332.

What about the Fluorescence intensity (SfurOBP1 [1]; 1-NPN 24 (unit not given)) of the same compound?
The Fluorescence intensity was 55616 and 55933 and 55336.

What about the Fluorescence intensity (SfurOBP1 [1]; 1-NPN 26 (unit not given)) of the same compound?
The Fluorescence intensity was 55005 and 58722 and 54776.

What about the Fluorescence intensity (SfurOBP1 [1]; 1-NPN 28 (unit not given)) of the same compound?
The Fluorescence intensity was 60087 and 56565 and 53471.

What about the Fluorescence intensity (SfurOBP1 [1]; 1-NPN 30 (unit not given)) of the same compound?
The Fluorescence intensity was 59000 and 55051 and 51066.

What about the Kd (SfurOBP1 [1]; SfurOBP1, 2.0 µM protein, 50 mM Tris-HCl pH 7.4, read-out: dissociation constant of 1-NPN) of the same compound?
Its Kd is 24.2 µM.

And the Fluorescence intensity (SfurOBP2 [2]; 1-NPN 2 (unit not given))?
The Fluorescence intensity was 23662 and 22289 and 22010.

And the Fluorescence intensity (SfurOBP2 [2]; 1-NPN 4 (unit not given))?
Its Fluorescence intensity is 39603 and 44704 and 31870.

And the Fluorescence intensity (SfurOBP2 [2]; 1-NPN 6 (unit not given))?
Its Fluorescence intensity is 50431 and 46158 and 47197.

And the Fluorescence intensity (SfurOBP2 [2]; 1-NPN 8 (unit not given))?
The Fluorescence intensity was 61337 and 63137 and 57001.

And the Fluorescence intensity (SfurOBP2 [2]; 1-NPN 10 (unit not given))?
Its Fluorescence intensity is 59819 and 73730 and 69974.

What about the Fluorescence intensity (SfurOBP2 [2]; 1-NPN 14 (unit not given)) of the same compound?
The Fluorescence intensity was 64863 and 65896 and 57584.

What about the Fluorescence intensity (SfurOBP2 [2]; 1-NPN 16 (unit not given)) of the same compound?
The Fluorescence intensity was 70787 and 76872 and 65200.

And the Fluorescence intensity (SfurOBP2 [2]; 1-NPN 18 (unit not given))?
The Fluorescence intensity was 75833 and 70878 and 75400.

And the Fluorescence intensity (SfurOBP2 [2]; 1-NPN 20 (unit not given))?
The Fluorescence intensity was 67482 and 73624 and 78268.

What about the Fluorescence intensity (SfurOBP2 [2]; 1-NPN 22 (unit not given)) of the same compound?
Its Fluorescence intensity is 76334 and 74639 and 64277.

And the Kd (SfurOBP2 [2]; SfurOBP2, 2.0 µM protein, 50 mM Tris-HCl pH 7.4, read-out: dissociation constant of 1-NPN)?
Its Kd is 5.67 µM.

What about the Fluorescence intensity (SfurOBP3 [3]; 1-NPN 2 (unit not given)) of the same compound?
Its Fluorescence intensity is 61430 and 58985 and 59650.

And the Fluorescence intensity (SfurOBP3 [3]; 1-NPN 4 (unit not given))?
The Fluorescence intensity was 77503 and 80113 and 80262.

What about the Fluorescence intensity (SfurOBP3 [3]; 1-NPN 6 (unit not given)) of the same compound?
The Fluorescence intensity was 85325 and 83919 and 82776.

What about the Fluorescence intensity (SfurOBP3 [3]; 1-NPN 8 (unit not given)) of the same compound?
Its Fluorescence intensity is 97386 and 97137 and 85039.

And the Fluorescence intensity (SfurOBP3 [3]; 1-NPN 10 (unit not given))?
The Fluorescence intensity was 98049 and 103605 and 94167.

What about the Fluorescence intensity (SfurOBP3 [3]; 1-NPN 12 (unit not given)) of the same compound?
Its Fluorescence intensity is 100936 and 110967 and 98958.

And the Fluorescence intensity (SfurOBP3 [3]; 1-NPN 14 (unit not given))?
The Fluorescence intensity was 99019 and 113580 and 103187.

And the Fluorescence intensity (SfurOBP3 [3]; 1-NPN 16 (unit not given))?
The Fluorescence intensity was 114929 and 113428 and 104178.

What about the Fluorescence intensity (SfurOBP3 [3]; 1-NPN 18 (unit not given)) of the same compound?
Its Fluorescence intensity is 121020 and 111471 and 116920.

And the Fluorescence intensity (SfurOBP3 [3]; 1-NPN 20 (unit not given))?
The Fluorescence intensity was 114200 and 113028 and 114937.

And the Fluorescence intensity (SfurOBP3 [3]; 1-NPN 22 (unit not given))?
The Fluorescence intensity was 115221 and 112203 and 110696.

And the Fluorescence intensity (SfurOBP3 [3]; 1-NPN 24 (unit not given))?
Its Fluorescence intensity is 120756 and 110811 and 112155.

What about the Fluorescence intensity (SfurOBP3 [3]; 1-NPN 26 (unit not given)) of the same compound?
Its Fluorescence intensity is 117527 and 109823 and 115694.

And the Fluorescence intensity (SfurOBP3 [3]; 1-NPN 28 (unit not given))?
Its Fluorescence intensity is 107913 and 111968 and 118918.

What about the Fluorescence intensity (SfurOBP3 [3]; 1-NPN 30 (unit not given)) of the same compound?
The Fluorescence intensity was 110746 and 113690 and 116658.

And the Kd (SfurOBP3 [3]; SfurOBP3, 2.0 µM protein, 50 mM Tris-HCl pH 7.4, read-out: dissociation constant of 1-NPN)?
The Kd was 2.42 µM.

And the Fluorescence intensity (SfurOBP11 [4]; 1-NPN 2 (unit not given))?
Its Fluorescence intensity is 34926 and 31369 and 32128.

What about the Fluorescence intensity (SfurOBP11 [4]; 1-NPN 4 (unit not given)) of the same compound?
The Fluorescence intensity was 46136 and 60649 and 53421.

What about the Fluorescence intensity (SfurOBP11 [4]; 1-NPN 6 (unit not given)) of the same compound?
Its Fluorescence intensity is 59058 and 63562 and 67479.

What about the Fluorescence intensity (SfurOBP11 [4]; 1-NPN 8 (unit not given)) of the same compound?
The Fluorescence intensity was 73431 and 79398 and 77472.

What about the Fluorescence intensity (SfurOBP11 [4]; 1-NPN 10 (unit not given)) of the same compound?
The Fluorescence intensity was 83685 and 83190 and 84209.

What about the Fluorescence intensity (SfurOBP11 [4]; 1-NPN 12 (unit not given)) of the same compound?
The Fluorescence intensity was 87527 and 87829 and 87441.

What about the Fluorescence intensity (SfurOBP11 [4]; 1-NPN 14 (unit not given)) of the same compound?
Its Fluorescence intensity is 113208 and 119321 and 82397.

And the Fluorescence intensity (SfurOBP11 [4]; 1-NPN 16 (unit not given))?
The Fluorescence intensity was 121541 and 129453 and 101542.

And the Fluorescence intensity (SfurOBP11 [4]; 1-NPN 18 (unit not given))?
The Fluorescence intensity was 129684 and 132053 and 101150.

And the Fluorescence intensity (SfurOBP11 [4]; 1-NPN 20 (unit not given))?
Its Fluorescence intensity is 142842 and 126669 and 108121.

And the Fluorescence intensity (SfurOBP11 [4]; 1-NPN 22 (unit not given))?
The Fluorescence intensity was 118001 and 129399 and 126785.

What about the Fluorescence intensity (SfurOBP11 [4]; 1-NPN 24 (unit not given)) of the same compound?
Its Fluorescence intensity is 123359 and 122043 and 121686.

What about the Kd (SfurOBP11 [4]; SfurOBP11, 2.0 µM protein, 50 mM Tris-HCl pH 7.4, read-out: dissociation constant of 1-NPN) of the same compound?
Its Kd is 10.4 µM.

Which results are given for `Cc1cc(C(C)(C)C)c(O)c(C(C)(C)C)c1` [2,6-di-tert-butyl-4-methylphenol]?
IC50 (SfurOBP1 [5]): > 20 µM; IC50 (SfurOBP11 [6]): 18 µM; IC50 (SfurOBP2 [7]): > 20 µM; IC50 (SfurOBP3 [8]): > 20 µM
